According to US6130228A, “Polycyclic compounds” (priority 1995, dated 2000):
Where two headings read alike, the source gives them in different places.

Columns and labels:
[1] = tested on: noradrenaline (NA) uptake; assay: Monoamine Uptake Inhibition Assay, noradrenaline (synaptosomal preparation); assay type: biochemical, rat (Sprague Dawley); details: Table 1; form SALT; n = 5; read-out: IC50 NA UPTAKE
Method: (§1) One male rat (Sprague Dawley) weighing approx. 200-250 g was sacrificed by cervical dislocation. The brain was dissected out and the cerebellum discarded. The brain was then weighed and 10 ml ice cold sucrose (0.32M) added per gram tissue. […] The pellet was discarded and the supernatant retained (crude synaptosomal preparation).
(§2) All tubes were set up in triplicate. […] 100 μl of the prepared synaptosomal preparation was added to each tube and incubated for 5 minutes in a shaking water bath at 37° C. Any reaction was stopped by plunging the tubes into an ice water bath. ^3 H NA (10^-7 M) or ^3 H 5-HT ([…]) was added to each tube and incubated for 5 minutes in a shaking water bath at 37° C. Any reaction was stopped by plunging the tubes into an ice-water bath. Accumulated monoamines were collected using a Brandell Cell Harvester under mild vacuum. Filters were rinsed (2×) using 4 ml of ice-cold 0.9% saline. Scintillation fluid was added (4 ml/tube). Radioactivity was measured on a scintillation counter.
(§3) Non-specific values were subtracted from total values. The control was taken as 100%. Drug effects were calculated as a percentage of control inhibitor value. A graph of log of drug concentration versus % control was plotted and IC50 values were calculated by interpolation.

5-HT (serotonin) uptake = assay type: biochemical, rat (Sprague Dawley)
Method: as §1, §2, §3

[2] = target: T1, Acetylcholinesterase (AChE) (Rattus norvegicus, UniProt P37136); assay: biochemical; assay type: biochemical, Male Rats (Sprague Dawley), brain
T1 construct: The brain was removed and homogenised; from tissue; host or cells: rat brain (male Sprague Dawley), Triton X100 detergent supernatant of the EDTA-buffer pellet
Method: (i) Enzyme Source for AChE
5 Male Rats (Sprague Dawley) weighing approx 250 g were killed by CO2 overdose and cervical dislocation.
The brain was removed and homogenised (9 strokes at 840 rpm with 4 volumes of phosphate buffer pH 7.4+10 mM (EDTA) and centrifuged at 27,000 g for 30 minutes.
The supernatant was discarded and the pellet resuspended in phosphate buffer with 10 mM EDTA+1- Triton X100 (2 ml/g wet weight). The crude homogenate was centrifuged at 27,000 g for 30-40 minutes.
The pellet was discarded and the supernatant was dispensed into 0.5 ml aliquots and stored at -20° C. until required.
Phosphate Buffer (0.1M. pH 7.4)
Made up to 500 ml with distilled H2 O, pH 7.4.
0.5 ml aliquots of brain (enzyme solution) as prepared above were thawed out. 2 ml of phosphate buffer was added to each aliquot. 2 ml of the enzyme solution was incubated with 2 ml PDS for 60 minutes at 0° C. The composition of blank, control and test solutions are given below:
0.9 ml phosphate buffer (0.1 M, pH 7.4)
0.85 ml phosphate buffer (0.1M, pH 7.4)
0.05 ml acetylthiocholine (5.2 mM)
(§4) 0.8 ml phosphate buffer (0.1M, pH 7.4)
0.05 ml Acetylthiocholine 5.2 mM
Change in absorbance was measured at 30 second intervals for 3 minutes at […]. The control was taken as 100%. Inhibitor was calculated as a percentage of the control. A graph of Log of inhibitor conc. versus % control was plotted and IC5. values calculated by interpolation.

[3] = target: T2, Butyrylcholinesterase (BChE) (Equus caballus, UniProt P81908); assay: biochemical; details: for IC50: Table 2
T2 construct: purchased Sigma c-7512
Method: The following components were utilised:
Phosphate Buffer (0.1M, pH 7.4)
Made up to 500 ml with distilled H2 O, pH 7.4
1 ml of enzyme solution (i), was incubated with 2 ml PDS for 60 minutes at 0° C.
Components of the assay blank, controls and test solutions are provided below:
0.9 ml phosphate buffer (0.1M, pH 7.4)
0.85 ml phosphate buffer (0.1 M, pH 7.4)
0.05 ml Acetylthiocholine (5.2 mM)
as §4
Control was taken as 100%. Inhibitor was calculated as a percentage of control. A graph of Log of inhibitor conc. versus % control was plotted and IC50 values calculated by interpolation.

[4] = Table 3, read-out: 5-HT UPTAKE INHIBITION

T2 sequence (P81908 whole entry): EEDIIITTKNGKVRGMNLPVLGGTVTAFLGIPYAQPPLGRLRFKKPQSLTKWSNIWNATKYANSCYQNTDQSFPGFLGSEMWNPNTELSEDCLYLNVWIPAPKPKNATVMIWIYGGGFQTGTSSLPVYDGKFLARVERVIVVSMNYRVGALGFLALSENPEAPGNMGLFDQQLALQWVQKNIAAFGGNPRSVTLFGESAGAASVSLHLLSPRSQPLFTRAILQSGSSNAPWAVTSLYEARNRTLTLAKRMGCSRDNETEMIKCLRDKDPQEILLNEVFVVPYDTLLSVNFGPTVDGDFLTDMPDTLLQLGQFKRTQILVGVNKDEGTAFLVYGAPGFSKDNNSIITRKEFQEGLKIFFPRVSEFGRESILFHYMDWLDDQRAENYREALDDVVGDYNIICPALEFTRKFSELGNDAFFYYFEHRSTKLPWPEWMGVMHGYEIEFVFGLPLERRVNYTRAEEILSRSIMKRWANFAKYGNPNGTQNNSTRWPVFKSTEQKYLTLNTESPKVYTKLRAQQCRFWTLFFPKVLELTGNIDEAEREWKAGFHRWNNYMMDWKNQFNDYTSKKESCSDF
T1 sequence (P37136 32-614): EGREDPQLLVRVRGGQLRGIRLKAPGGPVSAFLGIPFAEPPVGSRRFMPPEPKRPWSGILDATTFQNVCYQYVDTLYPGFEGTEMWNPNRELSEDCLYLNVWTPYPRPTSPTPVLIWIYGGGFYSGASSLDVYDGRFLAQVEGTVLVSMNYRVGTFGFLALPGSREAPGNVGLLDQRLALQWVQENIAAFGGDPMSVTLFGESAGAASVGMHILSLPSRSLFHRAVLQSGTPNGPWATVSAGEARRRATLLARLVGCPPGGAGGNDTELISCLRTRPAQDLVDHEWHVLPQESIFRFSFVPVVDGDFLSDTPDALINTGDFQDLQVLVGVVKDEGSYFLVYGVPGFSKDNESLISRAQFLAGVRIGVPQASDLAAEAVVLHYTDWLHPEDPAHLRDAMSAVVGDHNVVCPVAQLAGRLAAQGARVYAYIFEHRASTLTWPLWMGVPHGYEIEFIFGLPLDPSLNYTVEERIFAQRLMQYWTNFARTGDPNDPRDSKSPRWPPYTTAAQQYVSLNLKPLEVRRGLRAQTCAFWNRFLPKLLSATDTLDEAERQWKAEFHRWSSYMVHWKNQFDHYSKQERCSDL

SMILES | IC50 [1] [µM] | IC50 (5-HT (serotonin) uptake; Table 1, form SALT, n = 5, read-out: IC50 5HT UPTAKE) [µM] | IC50 ([2]; Table 1, form SALT, ±SEM, n = 5, read-out: IC50 AChE) [µM] | IC50 (5-HT (serotonin) uptake; Table 1, form BASE, n = 5, read-out: IC50 5HT UPTAKE) [µM] | IC50 ([2]; Table 1, form BASE, ±SEM, n = 5, read-out: IC50 AChE) [µM] | 5-HT UPTAKE INHIBITION TACRINE RATIO (5-HT (serotonin) uptake) | IC50 (5-HT (serotonin) uptake; [4]) [µM] | AChE TACRINE RATIO [2] | IC50 ([2]; Table 2, read-out: AChE IC50) [µM] | BChE TACRINE RATIO [3] | IC50 ([3]; read-out: BChE IC50) [µM] | IC50 ([3]; NB = No Block at 100 μM, read-out: BChE IC50 (no block)) [µM] | IC50 [2] [µM] | AChE TACRINE RATIO ([2]; Table 2, relative to tacrine = 1.000)
Nc1c2c(nc3ccccc13)-c1ccccc1C2 [Compound 2, 6-Amino-4,5-benzo-[5H]-cyclopenta-[1,2-b]-quinoline] | 2.3 | 2.2 | 0.35 |  |  |  |  |  |  |  |  |  |  | 
Nc1c2c(nc3ccccc13)CCCc1ccccc1-2 [Compound 7, 13-Amino 6.7 dihydro[1H] benz [7] annuleno [4,5-b]quinoline] |  |  |  | 0.02 | 38.2 |  |  |  |  |  |  |  |  | 
Nc1c2c(nc3cc(F)c(F)cc13)CCC2 [Compound 8, 9-amino-6,7-difluoro-2,3-dihydro-1H -cyclopenta [1,2-b] quinoline] |  |  |  |  |  | 3.800 | 2 | 2.229 | 0.035 | 0.003 | 10 |  |  | 
Nc1c2c(nc3cc(F)cc(F)c13)CCC2 [Compound 9, 9-Amino-6,8-difluoro-2.3-dihydro-1H -cyclopenta[1,2-b] quinoline] |  |  |  |  |  | 0.146 | 52 | 0.650 | 0.12 | 0.018 | 1.4 |  |  | 
Nc1c2c(nc3ccc(F)c(F)c13)CCC2 [Compound 10, 9-Amino-7,8-difluoro-2,3-dihydro-1-H-cyclopenta-[1,2-b] quinoline] |  |  |  |  |  | 0.029 | 260 | 0.190 | 0.41 | 0.002 | 15 |  |  | 
Nc1c2c(nc3cc(Cl)ccc13)CCC2 [Compound 17, 9-amino-6-chloro-2,3-dihydro-1H-cyclopenta[b] quinoline] |  |  |  |  |  | 5.067 | 1.5 | 8.041 | 0.01 | 0.19 | 0.13 |  |  | 
Nc1c2c(nc3ccc(F)cc13)CCCC2 [Compound 18, 9-Amino-7-fluoro-1,2,3,4-tetrahydro-acridine] |  |  |  |  |  | 3.304 | 2.3 | 0.390 | 0.2 | 0.061 | 0.41 |  |  | 
Cc1ccc(C)c2c(N)c3c(nc12)CCC3 [Compound 20, 9-Amino-5,8-dimethyl-2,3-dihydro-1H -cyclopenta [1,2-b] quinoline] |  |  |  |  |  | 1.949 | 3.9 | 0.041 | 1.9 | 0.018 | 1.4 |  |  | 
Cc1cccc2c(N)c3c(nc12)CCC3 [Compound 21, 9-Amino-5-methyl-2.3-dihydro-1H -cyclopenta[1,2-b] quinoline] |  |  |  |  |  | 0.633 | 12 | 0.024 | 3.3 | 0.002 | 13.8 |  |  | 
Cc1cc(C)c2nc3c(c(N)c2c1)CCC3 [Compound 23, 9-Amino-5-7-Dimethyl-2,3-dihydro-1H-cyclopenta [1,2-b] quinoline] |  |  |  |  |  | 0.962 | 7.9 | 0.004 | 19 |  | 52 |  |  | 
Cc1ccc2nc3c(c(N)c2c1)CCC3 [Compound 24, 9-Amino-7-methyl-2,3-dihydro-1H-cyclopenta [1,2-b] quinoline] |  |  |  |  |  | 0.447 | 17 | 0.012 | 6.7 | 0.023 | 1.1 |  |  | 
Nc1c2c(nc3ccc(Br)cc13)CCC2 [Compound 25, 9-Amino-7-bromo-2,3-dihydro-1H-cyclopenta-[1,2-b] quinoline] |  |  |  |  |  | 1.434 | 5.3 | 0.008 | 10 | 0.013 | 1.9 |  |  | 
Cc1ccc2c(N)c3c(nc2c1C)CCC3 [Compound 26, 9-Amino-5,6-dimethyl-2,3-dihydro-1H-cyclopenta [1,2-b] quinoline] |  |  |  |  |  | 1.727 | 4.4 | 0.007 | 11.6 | 0.003 | 9.2 |  |  | 
Nc1c2c(nc3ccc(F)cc13)-c1ccccc1CC2 [Compound 27, 7-Amino-9-fluoro-5,6-dihydrobenz[c] acridine] |  |  |  |  |  | 2.171 | 3.5 | 0.004 | 18 |  |  | > 100 |  | 
c1ccc(CNc2c3c(nc4ccccc24)CCC3)cc1 [Compound 28, N-(Phenylmethyl)-9-amino-2,3-dihydro-1H-cyclopenta[1,2-b] quinoline] |  |  |  |  |  | 1.310 | 5.8 |  |  | 0.002 | 13.8 |  | 39.6 | 0.002
Cc1cc(C)c2c(N)c3c(nc2c1)CCC3 [Compound 30, 9-Amino-6,8-dimethyl-2,3-Dihydro-1H -cyclopenta [1,2-b] quinoline] |  |  |  |  |  | 0.938 | 8.1 | 0.600 | 0.13 | 0.035 | 0.71 |  |  | 
Nc1c2c(nc3c(F)ccc(F)c13)CCC2 [Compound 31, 9-Amino-5,8-difluoro-2,3-dihydro-1H-cyclopenta[1.2b] quinoline] |  |  |  |  |  |  |  | 0.166 | 0.47 | 0.005 | 4.8 |  |  | 
Nc1c2c(nc3c(F)cc(F)cc13)CCC2 [Compound 32, 9-Amino-5,7-difluoro-2.3dihydro-1H-cyclopenta[1,2b]quinoline] |  |  |  |  |  |  |  | 0.144 | 0.54 | 0.003 | 8.8 |  |  | 
Nc1c2c(nc3ccccc13)Cc1ccccc1CC2 [Compound 33, 13-amino 1,2-dihydro [1H] benz [7] annuleno [2,3-b] quinoline] |  |  |  |  |  | 0.400 | 18 | 0.002 | 36 |  |  |  |  | 
Nc1c2c(nc3ccc(F)cc13)-c1ccccc1C2 [Compound 34, 6-Amino-8-Fluoro-4,5-benzo-[5H]-cyclopenta-[1,2-b]-quinoline] |  |  |  |  |  | 0.400 | 18 | 0.030 | 2.9 |  |  |  |  | 
Nc1c2c(nc3ccc(Cl)cc13)-c1ccccc1C2 [Compound 35, 6-Amino-8-chloro-4,5-benzo-[5H]-cyclopenta-[1,2-b]-quinoline] |  |  |  |  |  | 0.070 | 114 |  | > 100 |  |  |  |  | 
COc1ccc2nc3c(c(N)c2c1)Cc1ccccc1-3 [Compound 36, 6-Amino-8-methoxy-4,5-benzo-[5H]-cyclopenta-[1,2-b]-quinoline] |  |  |  |  |  | 0.300 | 29 | 0.002 | 47 |  |  |  |  | 
